Laboratory results from PubChem BioAssay AID248 (DTP/NCI, 2004).
Where “and” joins values, the source holds several entries; their conditions need not be identical. Equal entries are not always repeated. Toxic doses and inconclusive results are not listed. No stated cut-off is given here; in the data, active means T/C of 150% or more; inactive means T/C below 125%.

Tested on: L1210 leukemia ip in BDF1 mice, survival T/C
Assay: NCI In Vivo Anticancer Drug Screen. Data for tumor model L1210 Leukemia (intraperitoneal) in B6D2F1 (BDF1) mice
Details: endpoint: mean survival time, higher = longer survival
Method in brief: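 Tumor was transplanted into mice, which were then dosed with test compound or vehicle alone. Survival was recorded for each group, and the treated figure was expressed relative to the control figure.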

[1] = dose: 100.0 mg/kg/injection, schedule: Q01DX001 (ip), vehicle: Klucel (hydroxypropylcellulose) (HPC)
[2] = dose: 200.0 mg/kg/injection, schedule: Q01DX001 (ip), vehicle: Klucel (hydroxypropylcellulose) (HPC)
[3] = dose: 400.0 mg/kg/injection, schedule: Q01DX001 (ip), vehicle: Klucel (hydroxypropylcellulose) (HPC)
[4] = dose: 200.0 mg/kg/injection, schedule: Q01DX001 (ip), vehicle: carboxymethylcellulose (CMC)
[5] = dose: 100.0 mg/kg/injection, schedule: Q01DX001 (ip), vehicle: carboxymethylcellulose (CMC)
[6] = dose: 400.0 mg/kg/injection, schedule: Q01DX001 (ip), vehicle: carboxymethylcellulose (CMC)

Measured: T/C

COc1cc(C)c2c(c1)C(=O)OC2=O
inactive: [1] 105 % of control | dose: 100.0 mg/kg/injection, schedule: Q04DX003 (ip), vehicle: Klucel (hydroxypropylcellulose) (HPC) 100 % of control | [2] 108 % of control | dose: 200.0 mg/kg/injection, schedule: Q04DX003 (ip), vehicle: Klucel (hydroxypropylcellulose) (HPC) 103 % of control | [3] 111 % of control | dose: 400.0 mg/kg/injection, schedule: Q04DX003 (ip), vehicle: Klucel (hydroxypropylcellulose) (HPC) 97 % of control

CC1(C)C2CCC1(C)C(NC(=O)N(CCCl)N=O)C2 (stereo not drawn)
inactive: dose: 4.0 mg/kg/injection, schedule: Q01DX001 (ip), vehicle: carboxymethylcellulose (CMC) 98 % of control | dose: 9.0 mg/kg/injection, schedule: Q01DX001 (ip), vehicle: carboxymethylcellulose (CMC) 96 % of control | dose: 18.0 mg/kg/injection, schedule: Q01DX001 (ip), vehicle: carboxymethylcellulose (CMC) 102 % of control | dose: 37.0 mg/kg/injection, schedule: Q01DX001 (ip), vehicle: carboxymethylcellulose (CMC) 112 % of control | dose: 75.0 mg/kg/injection, schedule: Q01DX001 (ip), vehicle: carboxymethylcellulose (CMC) 104 % of control | dose: 150.0 mg/kg/injection, schedule: Q01DX001 (ip), vehicle: carboxymethylcellulose (CMC) 106 % of control | [4] 115 % of control | dose: 500.0 mg/kg/injection, schedule: Q01DX001 (ip), vehicle: carboxymethylcellulose (CMC) 115 % of control | dose: 1000.0 mg/kg/injection, schedule: Q01DX001 (ip), vehicle: carboxymethylcellulose (CMC) 121 % of control

O=C(Cc1cccc2ccccc12)OCCBr
inactive: dose: 222.0 mg/kg/injection, schedule: Q01DX Z (ip), vehicle: methylcellulose (MC) 100 % of control | dose: 333.0 mg/kg/injection, schedule: Q01DX Z (ip), vehicle: methylcellulose (MC) 100 % of control | dose: 500.0 mg/kg/injection, schedule: Q01DX Z (ip), vehicle: methylcellulose (MC) 96 % of control

CN(C(=O)C1(C)CC2C=CC1C2)c1ccccc1 (stereo not drawn)
inactive: [1] 100 % of control | [2] 102 % of control | [3] 97 % of control

CCCCCCCNC
inactive: dose: 50.0 mg/kg/injection, schedule: Q01DX001 (ip), vehicle: carboxymethylcellulose (CMC) 99 % of control | [5] 99 % of control | [4] 96 % of control

O=C(CCCN1CCC(O)(c2ccc(Cl)cc2)CC1)c1ccc(F)cc1
inactive: dose: 1.25 mg/kg/injection, schedule: Q01DX009 (ip), vehicle: saline 90 % of control | dose: 2.5 mg/kg/injection, schedule: Q01DX009 (ip), vehicle: Klucel (hydroxypropylcellulose) (HPC) 92 % of control | dose: 2.5 mg/kg/injection, schedule: Q01DX009 (ip), vehicle: saline 100 % of control | dose: 2.5 mg/kg/injection, schedule: Q04DX003 (ip), vehicle: saline 114 % of control | dose: 5.0 mg/kg/injection, schedule: Q01DX009 (ip), vehicle: Klucel (hydroxypropylcellulose) (HPC) 95 % of control | dose: 5.0 mg/kg/injection, schedule: Q01DX009 (ip), vehicle: saline 113 % of control | dose: 5.0 mg/kg/injection, schedule: Q04DX003 (ip), vehicle: saline 101 % of control | dose: 10.0 mg/kg/injection, schedule: Q01DX009 (ip), vehicle: Klucel (hydroxypropylcellulose) (HPC) 100 % of control | dose: 10.0 mg/kg/injection, schedule: Q01DX009 (ip), vehicle: saline 121 % of control | dose: 10.0 mg/kg/injection, schedule: Q04DX003 (ip), vehicle: saline 124 % of control | dose: 20.0 mg/kg/injection, schedule: Q01DX009 (ip), vehicle: Klucel (hydroxypropylcellulose) (HPC) 111 % of control | dose: 20.0 mg/kg/injection, schedule: Q01DX009 (ip), vehicle: saline 90 % of control | dose: 20.0 mg/kg/injection, schedule: Q04DX003 (ip), vehicle: saline 101 % of control | dose: 40.0 mg/kg/injection, schedule: Q01DX009 (ip), vehicle: saline 90 % of control | dose: 40.0 mg/kg/injection, schedule: Q04DX003 (ip), vehicle: saline 101 % of control | dose: 80.0 mg/kg/injection, schedule: Q04DX003 (ip), vehicle: Klucel (hydroxypropylcellulose) (HPC) 110 % of control | dose: 160.0 mg/kg/injection, schedule: Q04DX003 (ip), vehicle: Klucel (hydroxypropylcellulose) (HPC) 106 % of control

CCCOC(=O)c1cncn1C(C)c1ccccc1 (stereo not drawn)
inactive: dose: 25.0 mg/kg/injection, schedule: Q01DX001 (ip), vehicle: saline 98 % of control | dose: 50.0 mg/kg/injection, schedule: Q01DX001 (ip), vehicle: saline 96 % of control | dose: 100.0 mg/kg/injection, schedule: Q01DX001 (ip), vehicle: saline 94 % of control

CCCCCCCC/C=C\CCCCCCCC(=O)NCCOC
inactive: dose: 37.5 mg/kg/injection, schedule: Q01DX009 (ip), vehicle: saline 97 % of control | dose: 75.0 mg/kg/injection, schedule: Q01DX009 (ip), vehicle: saline 92 % of control | dose: 75.0 mg/kg/injection, schedule: Q04DX003 (ip), vehicle: saline 90 % of control | dose: 150.0 mg/kg/injection, schedule: Q01DX009 (ip), vehicle: saline 99 % of control | dose: 150.0 mg/kg/injection, schedule: Q04DX003 (ip), vehicle: saline 98 % of control | dose: 300.0 mg/kg/injection, schedule: Q04DX003 (ip), vehicle: saline 88 % of control

COC(=O)c1ccc(OCCOc2ccc(C(C)(C)CC(C)(C)C)cc2)c(N)c1
inactive: dose: 100.0 mg/kg/injection, schedule: Q01DX009 (ip), vehicle: Klucel (hydroxypropylcellulose) (HPC) 97 % of control | dose: 200.0 mg/kg/injection, schedule: Q01DX009 (ip), vehicle: Klucel (hydroxypropylcellulose) (HPC) 105 % of control | dose: 400.0 mg/kg/injection, schedule: Q01DX009 (ip), vehicle: Klucel (hydroxypropylcellulose) (HPC) 91 % of control

CCCCOC(CN)C(Cl)(Cl)Cl (stereo not drawn)
inactive: dose: 6.0 mg/kg/injection, schedule: Q04DX002 (ip), vehicle: saline 96 % of control and 97 % of control | dose: 12.0 mg/kg/injection, schedule: Q04DX002 (ip), vehicle: saline 104 % of control and 87 % of control | dose: 12.5 mg/kg/injection, schedule: Q01DX009 (ip), vehicle: saline 97 % of control and 98 % of control | dose: 200.0 mg/kg/injection, schedule: Q01DX009 (ip), vehicle: saline 96 % of control and 101 % of control | dose: 200.0 mg/kg/injection, schedule: Q04DX002 (ip), vehicle: saline 97 % of control

CCCCN=C(NCCCC)Oc1ccccc1
inactive: dose: 26.6 mg/kg/injection, schedule: Q01DX Z (ip), vehicle: methylcellulose (MC) 104 % of control | dose: 40.0 mg/kg/injection, schedule: Q01DX Z (ip), vehicle: methylcellulose (MC) 102 % of control | dose: 60.0 mg/kg/injection, schedule: Q01DX Z (ip), vehicle: methylcellulose (MC) 102 % of control

COc1ccccc1C(=O)N/N=C\c1c[nH]c2ccccc12
inactive: dose: 100.0 mg/kg/injection, schedule: Q04DX002 (ip), vehicle: Klucel (hydroxypropylcellulose) (HPC) 93 % of control | dose: 200.0 mg/kg/injection, schedule: Q04DX002 (ip), vehicle: Klucel (hydroxypropylcellulose) (HPC) 89 % of control | dose: 400.0 mg/kg/injection, schedule: Q04DX002 (ip), vehicle: Klucel (hydroxypropylcellulose) (HPC) 89 % of control

CN1CCN(CCN2CCN(CCCN3c4ccccc4Sc4ccc(Cl)cc43)CC2)C1=O
inactive: [5] 104 % of control

O=C(NC1CCCCC1)N(O)C12CC3CC(CC(C3)C1)C2
inactive: dose: 100.0 mg/kg/injection, schedule: Q01DX001 (ip), vehicle: saline with Tween-80 108 % of control | dose: 200.0 mg/kg/injection, schedule: Q01DX001 (ip), vehicle: saline with Tween-80 92 % of control | dose: 400.0 mg/kg/injection, schedule: Q01DX001 (ip), vehicle: saline with Tween-80 95 % of control

O=C1C(Br)=C(c2ccccc2)C(=O)C(Br)=C1c1ccccc1
inactive: [5] 90 % of control | [4] 92 % of control | [6] 97 % of control

O=CCc1ccc2c(c1)OCO2
inactive: [4] 92 % of control | [6] 108 % of control
